Measurements: the supplement of paper PMC8960247
± gives the standard error.
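Note: immortalized renal angiomyolipoma cells stably carrying empty vector or TSC2, dosed in 384-well plates in DMEM, viability normalized to vehicle-treated wells within each plate.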

These compounds were tested on 621-102 (TSC2-deficient) (assay: relative viability vs DMSO; higher = less cytotoxic). Details: 0.001 µM; serum: 10% FBS; 72 h.
Work on `COc1cccc(-c2cc(=O)c3ccccc3o2)c1N` yielded a relative viability of 103 ± 3%. Work on `COc1cccc(Nc2c(C(N)=O)cnc3c(C)cc(S(=O)(=O)c4cccc(C(=O)N(C)C)c4)cc23)c1` yielded a relative viability of 102 ± 2.6%. For `COc1ncc(-c2ccc3nccc(-c4ccnnc4)c3c2)cc1NS(=O)(=O)c1ccc(F)cc1F`, the relative viability was 68.1 ± 1.7%. `C[C@@H](Oc1cc(-c2cnn(C3CCNCC3)c2)cnc1N)c1c(Cl)ccc(F)c1Cl` gave a relative viability of 97.3 ± 6.2%. `C[C@@H](Oc1cc(-n2cnc3ccc(CN4CCN(C)CC4)cc32)sc1C(N)=O)c1ccccc1C(F)(F)F` gave a relative viability of 88.1 ± 1.3%. `C[C@@H]1CN(CC(=O)Nc2ccc3c(c2)Cc2cccc(-c4cc(=O)cc(N5CCOCC5)o4)c2S3)C[C@H](C)O1` was tested, and the relative viability was 96.34 ± 0.66%. Work on `Cc1ccc(CN2CCNCC2)cc1NC(=O)CNc1ccc(F)c(F)c1` yielded a relative viability of 98.3 ± 5.5%. `Cc1cccc(-c2nn3c(c2-c2ccnc4ccc(C(N)=O)cc24)CCC3)n1` gave a relative viability of 87.2 ± 2%. With `Cc1ccccc1-n1c(Cn2cnc3c(N)ncnc32)nc2cccc(C)c2c1=O` the relative viability was 117.2 ± 0.36%. For `Cn1cc(-c2ccc3nnc(C(F)(F)c4ccc5ncccc5c4)n3n2)cn1`, the relative viability was 100.8 ± 0.26%. For `NC1=N[C@@]2(c3cc(NC(=O)c4ccc(F)cn4)ccc3F)COC[C@H]2CS1`, the relative viability was 105 ± 1.3%. In the case of `Nc1nc(Nc2ccc(S(N)(=O)=O)cc2)nn1C(=O)c1c(F)cccc1F`, the relative viability is reported as 102.5 ± 0.3%. Work on `O=C(NOCC(O)CO)c1cc(Br)c(F)c(F)c1Nc1ccc(I)cc1F` (stereo not drawn) yielded a relative viability of 99.7 ± 2.8%. In the case of `O=C(NOC[C@H](O)CO)c1ccc(F)c(F)c1Nc1ccc(I)cc1F`, the relative viability is reported as 104 ± 4.5%. With `O=C(c1ccc(F)cc1)N1CCC[C@H](c2nc(-c3ccc(F)cc3)no2)C1` the relative viability was 89.5 ± 2%. For `O=C1NC(=O)/C(=C/c2ccc3nccc(-c4ccncc4)c3c2)S1`, the relative viability was 106.8 ± 0.82%. Compound `O=c1cc(-c2cccc3c2Sc2ccccc2S3)oc(N2CCOCC2)c1` has a relative viability of 99.73 ± 0.79%. In the case of `O=c1cc(N2CCOCC2)oc2c(-c3ccccc3)cccc12`, the relative viability is reported as 111 ± 5%. `OCCn1cc(-c2cnc3nnn(Cc4ccc5ncccc5c4)c3n2)cn1` showed a relative viability of 98.7 ± 1.2%. `Oc1ccc([C@@H]2Oc3ccc(O)cc3[C@@H]3CCC[C@@H]32)cc1` was tested, and the relative viability was 124 ± 1.3%. Work on `c1ccc2c(CCNc3ccc(Nc4ccncc4)cc3)c[nH]c2c1` yielded a relative viability of 122 ± 2.9%.

Same assay, conditions: 0.01 µM; serum: 10% FBS; 72 h
`C=CC(=O)N1CCC[C@@H](n2nc(-c3ccc(Oc4ccccc4)cc3)c3c(N)ncnc32)C1` gave a relative viability of 102 ± 1.1%. `CC(=O)c1c(C)c2cnc(Nc3ccc(N4CCNCC4)cn3)nc2n(C2CCCC2)c1=O` was tested, and the relative viability was 110 ± 2.1%. Work on `CC(C)(C(=O)NCC(F)(F)C(F)(F)F)C(=O)N[C@@H]1C(=O)Nc2ccccc2-c2ccccc21` yielded a relative viability of 119.5 ± 0.86%. Work on `CC(C)(C)Cn1c(N)nc2ccc(-c3[nH]c(C(C)(C)C)nc3-c3ccc(F)cc3)nc21` yielded a relative viability of 100 ± 2.6%. `CC(C)CC(=O)Nc1n[nH]c2c1CN(C(=O)C1CCN(C)CC1)C2(C)C` was tested, and the relative viability was 103 ± 2.3%. `CC(C)c1cc(-c2ccc(F)c3ccccc23)nc(N)n1` gave a relative viability of 99.3 ± 4.8%. For `CC1(C)C(=O)N(CCN2CCC(C(=O)c3ccc(F)cc3)CC2)c2ccccc21`, the relative viability was 97.2 ± 4.5%. `CC1(C)CC(=O)c2c(C(F)(F)F)nn(-c3ccc(C(N)=O)c(N[C@H]4CC[C@H](OC(=O)CN)CC4)c3)c2C1` was tested, and the relative viability was 36.9 ± 4.2%. `CC1=C(C(=O)Nc2cc3cn[nH]c3cc2F)C(c2ccc(C(F)(F)F)cc2)CC(=O)N1` (stereo not drawn) gave a relative viability of 104.73 ± 0.024%. In the case of `CN(C)Cc1ccc(-c2nc3cccc4c3n2CCNC4=O)cc1`, the relative viability is reported as 127 ± 1.8%. Compound `CN(c1ncccc1CNc1nc(Nc2ccc3c(c2)CC(=O)N3)ncc1C(F)(F)F)S(C)(=O)=O` has a relative viability of 97.1 ± 2.1%. Work on `CN1CCN(c2ccc([N+](=O)[O-])c3no[n+]([O-])c23)CC1` yielded a relative viability of 105 ± 1.3%. In the case of `CNC(=O)c1ccc(C)c(-n2c(C)cc(OCc3ccc(F)cc3F)c(Br)c2=O)c1`, the relative viability is reported as 109.06 ± 0.1%. `CNCc1ccc(-c2[nH]c3cc(F)cc4c3c2CCNC4=O)cc1` gave a relative viability of 128 ± 4.3%. Work on `COC(=O)N1CCN(Cc2cccc(NC(=O)Nc3ccc(C)nc3)c2F)CC1` yielded a relative viability of 97.5 ± 0.16%. In the case of `COc1cc(Nc2ncc(F)c(Nc3ccc4c(n3)N(COP(=O)(O)O)C(=O)C(C)(C)O4)n2)cc(OC)c1OC`, the relative viability is reported as 106.9 ± 0.48%. `COc1cc(OC)c(/C=C/S(=O)(=O)Cc2ccc(OC)c(NCC(=O)O)c2)c(OC)c1` was tested, and the relative viability was 103.2 ± 0.43%. `COc1cc(OC)c(NC(=O)Nc2cc(C)on2)cc1Cl` showed a relative viability of 97.3 ± 3.8%. For `COc1cc2ncnc(Nc3cccc(Br)c3)c2cc1OC`, the relative viability was 115 ± 5.2%. With `COc1ccc(-c2cc3c(C)nc(N)nc3n([C@H]3CC[C@H](OCCO)CC3)c2=O)cn1` the relative viability was 91.2 ± 5%. Compound `COc1ccc(-c2ccc3c(N4CCOCC4)nc(N4C[C@@H](C)O[C@@H](C)C4)nc3n2)cc1CO` has a relative viability of 65.8 ± 4.5%. Work on `COc1cccc(-c2cc(=O)c3ccccc3o2)c1N` yielded a relative viability of 104.2 ± 0.83%. Work on `COc1cccc(Nc2c(C(N)=O)cnc3c(C)cc(S(=O)(=O)c4cccc(C(=O)N(C)C)c4)cc23)c1` yielded a relative viability of 97.2 ± 5.1%. For `COc1ncc(-c2ccc3nccc(-c4ccnnc4)c3c2)cc1NS(=O)(=O)c1ccc(F)cc1F`, the relative viability was 59.2 ± 0.65%. `C[C@@H](Oc1cc(-c2cnn(C3CCNCC3)c2)cnc1N)c1c(Cl)ccc(F)c1Cl` showed a relative viability of 104 ± 2.6%. `C[C@@H](Oc1cc(-n2cnc3ccc(CN4CCN(C)CC4)cc32)sc1C(N)=O)c1ccccc1C(F)(F)F` was tested, and the relative viability was 64.5 ± 3.1%. `C[C@@H]1CN(CC(=O)Nc2ccc3c(c2)Cc2cccc(-c4cc(=O)cc(N5CCOCC5)o4)c2S3)C[C@H](C)O1` was tested, and the relative viability was 96.06 ± 0.86%. `Cc1ccc(CN2CCNCC2)cc1NC(=O)CNc1ccc(F)c(F)c1` was tested, and the relative viability was 100.6 ± 0.38%. With `Cc1cccc(-c2nn3c(c2-c2ccnc4ccc(C(N)=O)cc24)CCC3)n1` the relative viability was 95.57 ± 0.43%. Work on `Cc1ccccc1-n1c(Cn2cnc3c(N)ncnc32)nc2cccc(C)c2c1=O` yielded a relative viability of 118 ± 4%. With `Cn1cc(-c2ccc3nnc(C(F)(F)c4ccc5ncccc5c4)n3n2)cn1` the relative viability was 99.2 ± 1.3%. With `NC1=N[C@@]2(c3cc(NC(=O)c4ccc(F)cn4)ccc3F)COC[C@H]2CS1` the relative viability was 105 ± 0.55%. With `Nc1nc(Nc2ccc(S(N)(=O)=O)cc2)nn1C(=O)c1c(F)cccc1F` the relative viability was 107 ± 1.8%. `O=C(NOCC(O)CO)c1cc(Br)c(F)c(F)c1Nc1ccc(I)cc1F` (stereo not drawn) gave a relative viability of 105.5 ± 0.56%. Compound `O=C(NOC[C@H](O)CO)c1ccc(F)c(F)c1Nc1ccc(I)cc1F` has a relative viability of 106.7 ± 0.59%. Work on `O=C(c1ccc(F)cc1)N1CCC[C@H](c2nc(-c3ccc(F)cc3)no2)C1` yielded a relative viability of 107 ± 1.4%. Compound `O=C1NC(=O)/C(=C/c2ccc3nccc(-c4ccncc4)c3c2)S1` has a relative viability of 105 ± 5.2%. `O=c1cc(-c2cccc3c2Sc2ccccc2S3)oc(N2CCOCC2)c1` showed a relative viability of 98.3 ± 3.2%. `O=c1cc(N2CCOCC2)oc2c(-c3ccccc3)cccc12` was tested, and the relative viability was 119.9 ± 0.6%. `OCCn1cc(-c2cnc3nnn(Cc4ccc5ncccc5c4)c3n2)cn1` was tested, and the relative viability was 89.7 ± 2.1%. `Oc1ccc([C@@H]2Oc3ccc(O)cc3[C@@H]3CCC[C@@H]32)cc1` showed a relative viability of 105 ± 1.5%. For `c1ccc2c(CCNc3ccc(Nc4ccncc4)cc3)c[nH]c2c1`, the relative viability was 119.8 ± 0.41%.
